Experimental data published in US20250122191A1, “COMPOUNDS AS BCL-2 INHIBITORS” (Fochon Biosciences, Ltd, priority 2021, published 2025).

What follows are compounds tested on RS4;11-BCL-2 G101V cells (assay: Cell proliferation assay (MTS), RS4;11-BCL-2 G101V engineered cells). Conditions: Homo sapiens, 120 h, read-out: RS4, 11 BCL2-G101V IC50.
Format: cell-based
Source text: MTS testing kit was purchased from Promega (Madison, WI, USA). The RPMI-1640, Fetal bovine serum and Penicillin-Streptomycin were purchased from BI (Biological Industries, Beit Haemek, Israel). Puromycin was purchased from Beyotime (shanghai, China). Dimethyl sulfoxide (DMSO) was purchased from Sigma (St. Louis., MO, USA). RS4;11-BCL-2 G101V (Cobioer Lot. #: CBD2021063013P4), RS4;11-BCL-2 D103E (Cobioer Lot. #: CBD2021063013P4), RS4;11-BCL-2 D103Y (Cobioer Lot. #: CBD2022012101P4) and RS4;11-BCL-2 F104L (Cobioer Lot. #: CBD2021063014P4) cells were cultured in RPMI1640 supplemented with 1 ug/mL puromycin, 100 U/mL Penicillin-Streptomycin and 10% FBS.
To investigate whether a compound is able to inhibit the activity of BCL-2 mutation in cells, a mechanism-based assay using engineered cell lines stably overexpressing BCL-2 mutation (RS4;11-BCL-2 G101V, RS4;11-BCL-2 D103E, RS4;11-BCL-2 D103Y, and RS4;11-BCL-2 F104L) was developed. In this assay, the inhibition of BCL-2 mutation was reflected by the inhibition of cell proliferation of engineered RS4;11 cells. Cells were plated into 96-well plates at optimized cell density (RS4;11-BCL-2 G101V: 5000 cells/well; RS4;11-BCL-2 D103E: 7500 cells/well; RS4;11-BCL-2 D103Y: 7500 cells/well; RS4;11-BCL-2 F104L: 5000 cells/well). Plates were incubated at 37° C., with 5% CO2 for 4 h (RS4;11-BCL-2 G101V, RS4;11-BCL-2 F104L) and 24 h (RS4;11-BCL-2 D103E, RS4;11-BCL-2 D103Y), respectively. Compounds were serially diluted and added to the plates with the final concentrations of 10000, 3333.3, 1111.1, 370.4, 123.5, 41.2, 13.7, 4.6 and 1.5 nM. Plates were incubated at 37° C., with 5% CO2 for 120 h (RS4; 11-BCL-2 G101V, RS4; 11-BCL-2 F104L) and 72 h (RS4;11-BCL-2 D103E, RS4;11-BCL-2 D103Y), respectively. 20 μl MTS was added into each well and the plates were incubated at 37° C., with 5% CO2 exactly for 2 h. The absorbance was measured by a microplate reader at 490 nm. IC50 values were calculated using GraphPad Prism 8.0 software.

IC50, 1 nM:
CC(C)c1ccccc1[C@@H]1CN(C2COC2)CCN1C1CC2(CCN(c3ccc(C(=O)NS(=O)(=O)c4cnc(NC[C@H]5CC[C@](C)(O)CC5)c([N+](=O)[O-])c4)c(Oc4cnc5[nH]cc(F)c5c4)c3)CC2)C1 [Example 205, 2-((3-fluoro-1H-pyrrolo[2,3-b]pyridin-5-yl)oxy)-N-((6-((((1r,4r)-4-hydroxy-4-methylcyclohexyl)methyl)amino)-5-nitropyridin-3-yl)sulfonyl)-4-(2-((R)-2-(2-isopropylphenyl)-4-(oxetan-3-yl)piperazin-1-yl)-7-azaspiro[3.5]nonan-7-yl)benzamide]
COc1cc(CN2CCN(C3CC4(CCN(c5ccc(C(=O)NS(=O)(=O)c6cnc(NC[C@H]7CC[C@](C)(O)CC7)c([N+](=O)[O-])c6)c(Oc6cnc7[nH]cc(F)c7c6)c5)CC4)C3)[C@H](c3ccccc3C(C)C)C2)ncc1C1CC1 [Example 251, 4-(2-((R)-4-((5-cyclopropyl-4-methoxypyridin-2-yl)methyl)-2-(2-isopropylphenyl)piperazin-1-yl)-7-azaspiro [3.5]nonan-7-yl)-2-((3-fluoro-1H-pyrrolo[2,3-b]pyridin-5-yl)oxy)-N-((6-((((1r,4r)-4-hydroxy-4-methylcyclohexyl)methyl)amino)-5-nitropyridin-3-yl)sulfonyl)benzamide]
CC(C)c1ccccc1[C@@H]1CN(C2CC2)CCN1C1CC2(CCN(c3ccc(C(=O)NS(=O)(=O)c4cnc(NC[C@H]5CC[C@](C)(O)CC5)c([N+](=O)[O-])c4)c(Oc4cnc5[nH]cc(F)c5c4)c3)CC2)C1 [Example 145, 4-(2-((R)-4-cyclopropyl-2-(2-isopropylphenyl)piperazin-1-yl)-7-azaspiro[3.5]nonan-7-yl)-2-((3-fluoro-1H-pyrrolo[2,3-b]pyridin-5-yl)oxy)-N-((6-((((1r,4r)-4-hydroxy-4-methylcyclohexyl)methyl)amino)-5-nitropyridin-3-yl)sulfonyl)benzamide]
CC(C)c1ccccc1[C@@H]1CN(Cc2ccc3c(c2)OC(F)(F)O3)CCN1C1CC2(CCN(c3ccc(C(=O)NS(=O)(=O)c4cnc(NC[C@H]5CC[C@](C)(O)CC5)c([N+](=O)[O-])c4)c(Oc4cnc5[nH]cc(F)c5c4)c3)CC2)C1 [Example 352, 4-(2-((R)-4-((2,2-difluorobenzo[d][1,3]dioxol-5-yl)methyl)-2-(2-isopropylphenyl)piperazin-1-yl)-7-azaspiro[3.5]nonan-7-yl)-2-((3-fluoro-1H-pyrrolo [2,3-b]pyridin-5-yl)oxy)-N-((6-((((1r,4r)-4-hydroxy-4-methylcyclohexyl)methyl)amino)-5-nitropyridin-3-yl)sulfonyl)benzamide]
COc1nc2[nH]cc(F)c2cc1Oc1cc(N2CCC3(CC2)CC(N2CCN(C)C[C@H]2c2ccccc2C(C)C)C3)ccc1C(=O)NS(=O)(=O)c1cnc(NC[C@H]2CC[C@](C)(O)CC2)c([N+](=O)[O-])c1 [Example 137, 2-((3-fluoro-6-methoxy-1H-pyrrolo[2,3-b]pyridin-5-yl)oxy)-N-((6-((((1r,4r)-4-hydroxy-4-methylcyclohexyl)methyl)amino)-5-nitropyridin-3-yl)sulfonyl)-4-(2-((R)-2-(2-isopropylphenyl)-4-methylpiperazin-1-yl)-7-azaspiro[3.5]nonan-7-yl)benzamide]
COc1nc2[nH]cc(F)c2cc1Oc1cc(N2CCC3(CC2)CC(N2CCN(Cc4ccnc(N)c4)C[C@H]2c2ccccc2C(C)C)C3)ccc1C(=O)NS(=O)(=O)c1cnc(NC[C@H]2CC[C@](C)(O)CC2)c([N+](=O)[O-])c1 [Example 70, 4-(2-((R)-4-((2-aminopyridin-4-yl)methyl)-2-(2-isopropylphenyl)piperazin-1-yl)-7-azaspiro[3.5]nonan-7-yl)-2-((3-fluoro-6-methoxy-1H-pyrrolo[2,3-b]pyridin-5-yl)oxy)-N-((6-((((1r,4r)-4-hydroxy-4-methylcyclohexyl)methyl)amino)-5-nitropyridin-3-yl)sulfonyl)benzamide]
COc1nc2[nH]cc(F)c2cc1Oc1cc(N2CCC3(CC2)CC(N2CCN(Cc4ccc(C#N)cc4)C[C@H]2c2ccccc2C(C)C)C3)ccc1C(=O)NS(=O)(=O)c1cnc(NC[C@H]2CC[C@](C)(O)CC2)c([N+](=O)[O-])c1 [Example 236, 4-(2-((R)-4-(4-cyanobenzyl)-2-(2-isopropylphenyl)piperazin-1-yl)-7-azaspiro[3.5]nonan-7-yl)-2-((3-fluoro-6-methoxy-1H-pyrrolo[2,3-b]pyridin-5-yl)oxy)-N-((6-((((1r,4r)-4-hydroxy-4-methylcyclohexyl)methyl)amino)-5-nitropyridin-3-yl)sulfonyl)benzamide]
COc1nc2[nH]cc(F)c2cc1Oc1cc(N2CCC3(CC2)CC(N2CCN(C4COC4)C[C@H]2c2ccccc2C(C)C)C3)ccc1C(=O)NS(=O)(=O)c1cnc(NC[C@H]2CC[C@](C)(O)CC2)c([N+](=O)[O-])c1 [Example 131, 2-((3-fluoro-6-methoxy-1H-pyrrolo[2,3-b]pyridin-5-yl)oxy)-N-((6-((((1r,4r)-4-hydroxy-4-methylcyclohexyl)methyl)amino)-5-nitropyridin-3-yl)sulfonyl)-4-(2-((R)-2-(2-isopropylphenyl)-4-(oxetan-3-yl)piperazin-1-yl)-7-azaspiro[3.5]nonan-7-yl)benzamide]
COc1nc2[nH]cc(F)c2cc1Oc1cc(N2CCC3(CC2)CC(N2CCN(C4CC4)C[C@H]2c2ccccc2C(C)C)C3)ccc1C(=O)NS(=O)(=O)c1cnc(NC[C@H]2CC[C@](C)(O)CC2)c([N+](=O)[O-])c1 [Example 143, 4-(2-((R)-4-cyclopropyl-2-(2-isopropylphenyl)piperazin-1-yl)-7-azaspiro[3.5]nonan-7-yl)-2-((3-fluoro-6-methoxy-1H-pyrrolo[2,3-b]pyridin-5-yl)oxy)-N-((6-((((1r,4r)-4-hydroxy-4-methylcyclohexyl)methyl)amino)-5-nitropyridin-3-yl)sulfonyl)benzamide]
COc1nc2[nH]cc(F)c2cc1Oc1cc(N2CCC3(CC2)CC(N2CCN(C4CCOCC4)C[C@H]2c2ccccc2C(C)C)C3)ccc1C(=O)NS(=O)(=O)c1cnc(NC[C@H]2CC[C@](C)(O)CC2)c([N+](=O)[O-])c1 [Example 319, 2-((3-fluoro-6-methoxy-1H-pyrrolo[2,3-b]pyridin-5-yl)oxy)-N-((6-((((1r,4r)-4-hydroxy-4-methylcyclohexyl)methyl)amino)-5-nitropyridin-3-yl)sulfonyl)-4-(2-((R)-2-(2-isopropylphenyl)-4-(tetrahydro-2H-pyran-4-yl)piperazin-1-yl)-7-azaspiro[3.5]nonan-7-yl)benzamide]
COc1nc2[nH]cc(F)c2cc1Oc1cc(N2CCC3(CC2)CC(N2CCN(CC4CCOCC4)C[C@H]2c2ccccc2C(C)C)C3)ccc1C(=O)NS(=O)(=O)c1cnc(NC[C@H]2CC[C@](C)(O)CC2)c([N+](=O)[O-])c1 [Example 317, 2-((3-fluoro-6-methoxy-1H-pyrrolo[2,3-b]pyridin-5-yl)oxy)-N-((6-((((1r,4r)-4-hydroxy-4-methylcyclohexyl)methyl)amino)-5-nitropyridin-3-yl)sulfonyl)-4-(2-((R)-2-(2-isopropylphenyl)-4-((tetrahydro-2H-pyran-4-yl)methyl)piperazin-1-yl)-7-azaspiro[3.5]nonan-7-yl)benzamide]
COc1nc2[nH]cc(F)c2cc1Oc1cc(N2CCC3(CC2)CC(N2CCN(C4CCC(O)CC4)C[C@H]2c2ccccc2C(C)C)C3)ccc1C(=O)NS(=O)(=O)c1cnc(NC[C@H]2CC[C@](C)(O)CC2)c([N+](=O)[O-])c1 (single isomer, unassigned) [Example 332]

IC50, 2 nM:
CCOc1nc2[nH]cc(F)c2cc1Oc1cc(N2CCC3(CC2)CC(N2CCN(Cc4ccc(OC)c5oc(C)nc45)C[C@H]2c2ccccc2C(C)C)C3)ccc1C(=O)NS(=O)(=O)c1cnc(NC[C@H]2CC[C@](C)(O)CC2)c([N+](=O)[O-])c1 [Example 246, 2-((6-ethoxy-3-fluoro-1H-pyrrolo[2,3-b]pyridin-5-yl)oxy)-N-((6-((((1r,4r)-4-hydroxy-4-methylcyclohexyl)methyl)amino)-5-nitropyridin-3-yl)sulfonyl)-4-(2-((R)-2-(2-isopropylphenyl)-4-((7-methoxy-2-methylbenzo[d]oxazol-4-yl)methyl)piperazin-1-yl)-7-azaspiro[3.5]nonan-7-yl)benzamide]
